The results in this text go back to ChEMBL document CHEMBL5344466, “Pyrrolidinone Derivatives as NIK Inhibitors for Treating Inflammatory and Autoimmune Diseases” (ACS Med Chem Lett, 2024).

For this assay, the target named is Mitogen-activated protein kinase kinase kinase 14 (Homo sapiens, UniProt Q99558). In words: Inhibition of auto-phosphorylation of human GST-tagged NIK/MAP3K14 measured for 2 hrs by AlphaScreen assay. On the technique in general: Bead proximity is the source of the signal in Alpha formats.
Chain of Mitogen-activated protein kinase kinase kinase 14 (Q99558 whole entry): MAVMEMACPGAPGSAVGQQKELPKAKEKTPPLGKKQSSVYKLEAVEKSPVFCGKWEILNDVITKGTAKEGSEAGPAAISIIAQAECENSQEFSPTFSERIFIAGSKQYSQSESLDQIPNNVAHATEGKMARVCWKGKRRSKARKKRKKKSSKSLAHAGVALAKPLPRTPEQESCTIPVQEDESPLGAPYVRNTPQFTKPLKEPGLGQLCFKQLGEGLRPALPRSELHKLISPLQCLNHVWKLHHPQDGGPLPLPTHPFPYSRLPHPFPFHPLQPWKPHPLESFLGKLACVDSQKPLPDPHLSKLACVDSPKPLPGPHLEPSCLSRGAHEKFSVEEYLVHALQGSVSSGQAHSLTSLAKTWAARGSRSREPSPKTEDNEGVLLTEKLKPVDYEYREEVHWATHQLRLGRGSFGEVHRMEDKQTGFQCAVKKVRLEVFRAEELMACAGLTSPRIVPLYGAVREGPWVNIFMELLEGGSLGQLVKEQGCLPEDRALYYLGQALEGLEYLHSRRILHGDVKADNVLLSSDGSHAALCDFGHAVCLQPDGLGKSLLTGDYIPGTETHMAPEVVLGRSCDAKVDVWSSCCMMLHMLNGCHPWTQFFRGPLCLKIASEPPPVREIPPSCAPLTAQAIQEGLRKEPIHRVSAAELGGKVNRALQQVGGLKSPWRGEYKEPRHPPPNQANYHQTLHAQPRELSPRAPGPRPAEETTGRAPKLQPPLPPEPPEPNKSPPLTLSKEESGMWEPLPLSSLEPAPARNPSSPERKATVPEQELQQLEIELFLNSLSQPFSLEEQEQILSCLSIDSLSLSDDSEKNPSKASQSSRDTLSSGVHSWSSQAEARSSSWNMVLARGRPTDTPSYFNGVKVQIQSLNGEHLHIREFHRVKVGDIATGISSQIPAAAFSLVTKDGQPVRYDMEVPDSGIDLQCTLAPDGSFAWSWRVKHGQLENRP
As for `CN1CCC(O)(c2cn(-c3cccc(-c4nc(C(N)=O)c5ccccc5n4)c3)cn2)C1=O` (stereo unspecified), the 50% inhibitory concentration (IC50) is less than 100 nM.

In turn, `CN1CC[C@@](O)(c2cc(-c3cccc(-c4ccc(C(N)=O)o4)c3)no2)C1=O` gave an IC50 of less than 100 nM. The same measure for `CN1CC[C@@](O)(c2cc(-c3cccc(-c4cc(N5CC(F)(F)C5)cc(C(N)=O)n4)c3)no2)C1=O`: less than 100 nM; for `CN1CC[C@@](O)(c2cc(-c3cccc(-c4cc(C5CC5)nc(C(N)=O)n4)c3)no2)C1=O`: less than 100 nM; for `[2H]c1nc(N)c2nc(-c3cccc(-c4cnc([C@@]5(O)CCN(C)C5=O)s4)c3)ccc2n1`: less than 100 nM. The compound `CN1CC[C@@](O)(c2cc(-c3cccc(-c4nc(C(N)=O)c(Br)s4)c3)no2)C1=O` registered an IC50 of less than 100 nM.

By IC50 is commonly meant the concentration that inhibits the measured activity by half. Read a low IC50 as inhibition by little substance.
